Test system: MelanoDerm™ in vitro skin model (MEL-300B melanoderms)
Experiment: In vitro skin model test (MelanoDerm skin-lightening, digital image quantification)
Format: cell-based
Conditions: for pixel density / lightening: 14 days; for pixel density: pixel content of untreated set at 1.00; for lightening: vs untreated
Procedure: The skin-lightening effect was validated on the in vitro skin model, the MelanoDerm™ carried out by MatTek using MEL-300B melanoderms. This model is very similar in structure and function to the natural skin and has the cell types relevant in the epidermis including the melanocytes, which are responsible for the synthesis of the main pigment melanin. Further information can be found, for example, in http://www.mattek.com/pages/in_vitro_basics. The study was carried out over a period of 14 days at two concentrations, 10 μM and 60 μM. 1% Kojic acid was the positive standard and untreated as negative control.
Digital image quantification was achieved by subtracting a standard background value from the pixel content of regions of identical size. The pixel content of untreated cells was set at 1.00. Treatment with topical 1% kojic acid as a positive control gave pixel density of 0.96 or 4% lightening. Treatment with Duroquinone gave pixel density of 0.82 or 18% lightening at a concentration of 10 μM and 0.60 or 40% lightening at a concentration of 60 μM. Treatment with 2,5,6-trimethyl-3-(4-(trifluoromethyl)phenyl)cyclohexa-2,5-diene-1,4-dione gave pixel density of […] or 34% lightening at a concentration of 60 μM.

Row | Compound | effectiveness relative to kojic acid positive standard (60 μM vs 1% kojic acid) | pixel density (60 μM) | lightening (60 μM) [%] | effectiveness relative to kojic acid positive standard (10 μM vs 1% kojic acid) | pixel density (10 μM) | lightening (10 μM) [%] | pixel density (topical 1% (positive control)) | lightening (topical 1% (positive control)) [%]
1 | CC1=C(C)C(=O)C(c2ccc(C(F)(F)F)cc2)=C(C)C1=O [2,5,6-trimethyl-3-(4-(trifluoromethyl)phenyl)cyclohexa-2,5-diene-1,4-dione] | ten times as effective | 0.69 | 34 | – | – | – | – | –
2 | CC1=C(C)C(=O)C(C)=C(C)C1=O [Duroquinone, 2,3,5,6-tetramethylcyclohexa-2,5-diene-1,4-dione] | ten times as effective | 0.60 | 40 | four and a half times as effective | 0.82 | 18 | – | –
3 | O=c1cc(CO)occ1O [kojic acid, reference compound] | – | – | – | – | – | – | 0.96 | 4

From patent publication US20100010100A1, “DERMATOLOGICAL COMPOSITIONS WITH ANTI-AGING AND SKIN EVEN-TONING PROPERTIES” (priority 2008, published 2010)
